Results published in paper PMC10442743 (Dalton Transactions (Cambridge, England : 2003), 2023).
Where two headings read alike, the source gives them in different places.

Key:
[1] = tested on: 6-mer dsDNA (DNA, duplex) AGGCAG/CTGCCT; experiment: ESI tandem mass spectrometry; details: MilliQ water pH 7, 37 °C, 3:1 mixed; 24 h or 72 h (ESI); non-covalent
[2] = tested on: 14-mer ssDNA (DNA, single strand) ATACATGGTACATA; experiment: ESI tandem mass spectrometry; details: MilliQ water pH 7, 37 °C, 24 h; compound:DNA 3:1 mixed; adduct seen as [Ru(toluene)(PPh3)]2+; non-covalent
[3] = n-octanol/water; ESI ref 13; cited from earlier work
MCF-7 = experiment: MTT cytotoxicity assay, MCF-7 cells; format: cell-based, human; details: MTT
Experimental: (§1) The cytotoxicity of 1–11CA was assessed against human breast cancer MCF-7 and MDA-MB-231 cells, and non-tumorigenic adherent mouse fibroblast connective tissue L929 cells using the MTT assay after 24 and 72 h (Tables S5 ^† and Table 1, respectively).
(§2) Then, necessary dilutions were made using the supplement DMEM, to prepare the range of tested concentrations. Since DMSO was used to solubilize the compounds, a supplemented DMEM + DMSO (at the same percentage as in the sequential dilutions) was considered as a control in the 3-[4,5-dimetylthiazole-2-yl]-2,5-diphenyltetrazolium bromide (MTT) assay.
(§3) L929, MCF-7, and MDA-MB-231 cell lines were cultured in DMEM supplemented with 10% (v/v) FBS and 1% (v/v) of penicillin–streptomycin. The cells were incubated in a humidified chamber at 37 °C under saturated air with a 5% CO2 atmosphere. Cells were passed at 80%–90% of confluency with 0.25% (w/v) trypsin and the cell culture media was changed every 2–3 days.
(§4) The compounds were tested on two breast cancer cell lines (MCF-7 and MDA-MB-231) and L929 fibroblasts, used as a reference for the safety evaluation according to ISO 10993-1:2009 “Biological evaluation of medical devices”. Cells were seeded on sterile 96-well plates at 50 000 cells per well (L929) and 20 000 cells per well (MCF-7 and MDA-MB-231) in supplemented DMEM medium (100 μL) for 24 h. The culture medium was removed and new media containing different concentrations of the compounds (0–1000 μM) was added to the wells (100 μL). Control cells were incubated under the same conditions in the absence of a compound. Cells were incubated for 24 and 72 h under the same conditions described above. Then, the medium was removed, and the cells were incubated with 3-(4,5-dimethylthiazol-2-yl)-2,5-diphenyltetrazolium bromide (MTT; 0.5 mg mL^−1) for 3 h. After this time, the medium was removed, and formazan crystals were solubilized with DMSO (100 μL per well). The absorbance in each well was read on a SynergyTM HT Multimode microplate reader (BioTek Instruments; Winooski, VT, USA) at 570 and 630 nm (for background correction), and the cell viability was calculated according to the following equation (eqn (1)):1 [drawing 3] where OD570(sample) and OD630(sample) are the optical densities of the solutions containing the compounds and OD570(control) and OD630(control) are controls without compound.
(§5) Each apoptosis value determination represents the mean ± standard deviation of 2 independent assays. The IC50 values were obtained using GraphPad Prism software and ANOVA (analysis of variance) was performed to determine the statistical difference between the IC50 values of different cell lines.

MDA-MB-231 [4] = experiment: MTT cytotoxicity assay, MDA-MB-231 cells; format: cell-based, human; details: MTT
Experimental: as §1, §2, §3, §4, §5

L929 = experiment: MTT cytotoxicity assay, L929 fibroblasts (and selectivity index); format: cell-based, mouse; details: for SI (selectivity index): IC50 L929 divided by average IC50 of the breast cancer cell lines; for IC50: MTT
Experimental: as §1, §2, §3, §4, §5

MDA-MB-231 [5] = experiment: FITC Annexin V / 7-AAD apoptosis assay, MDA-MB-231; format: cell-based, human; details: 24 h at 24 h IC50 dose
Experimental: Apoptosis in MCF-7 and MDA-MB-231 cells was determined using FITC Annexin V with a 7-aminoactinomycin D (7-AAD) staining kit (BioLegend®, California, US) according to the manufacturer's instructions. […] Following incubation, the cells were washed with PBS twice and detached using 0.25% trypsin. After obtaining cell pellets by centrifugation (300g for 5 min), the cells were resuspended in 100 μL of PBS, followed by the addition of 10 μL of FITC Annexin V and 7-AAD, and then incubated for 15 min at room temperature while protected from light. After the incubation period, 200 μL of binding buffer was added to the cell suspension and the samples were analyzed immediately using a BD Accuri C6 flow cytometer with a minimum of 10 000 events. The assays were performed in quadruplicate and the results were analyzed with Accuri C6 analysis software.
as §5, with “Each cell viability result represents the mean ± standard deviation (SD) for n = 4 replicates in each of 3 independent assays, resulting in 12 independent values. Each” for “Each”

[6] = Solubility in water (ICP-MS); details: 25 °C, limit of detection = 5 ppt
Experimental: sonication, the mixtures were stirred at 25 °C for 1 h. The saturated solutions were filtered
to remove any insoluble solids, dissolved in 0.5 mL of MilliQ water, and analyzed using
ICP-MS. Samples were submitted to acidic digestion with 2 mL of concentrated HNO3
min to heat to 100°C and keep at 100°C for 60 min. After the digestion, the sample
volumes were precisely adjusted to 5 mL with MilliQ water. Samples were further diluted
30 times with 2% HNO3 solution and their Ru content was analyzed by ICP-MS using
standard mode on NexIon 350 D ICP-MS instrument (PerkinElmer). Yttrium was added
as an internal standard at a concentration of 2 ppb to all the solution and Ru quantitation
was performed using an external calibration curve with standards in the 0.05-50 ppb

[7] = Molar conductivity in acetonitrile; format: physicochemical; details: 1 mM in acetonitrile, 25 °C
Experimental: The molar conductivity (ΛM, reported as S·cm2·mol–1) of solutions of 11CA in acetonitrile (1 mM) were measured in a Radiometer Copenhagen CDM92 equipped with a conductivity cell CDC641T glass platinum electrode at room temperature (25 °C). The conductivity of the pure solvent was used as standard controls.
Table S3. Solubility in water at 25 °C, n-octanol/water partition coefficient and molar conductivity of the 11CA. * below limit of detection = 5 ppt.

[8] = n-octanol/water partition coefficient (shake-flask, ICP-MS)
Experimental: The saturated solutions were filtered
(DigiPREP Jr. 15ml, 40 Pos, SCP Science). The digestion program was the following: 15
After the digestion, the sample
Samples were further diluted
range. All measurements were performed in triplicates.
lipophilicity of a compound. This assay was performed following the Shake-flask method
organic and aqueous phase. Aliquots of each phase were taken and analyzed separately
range. The partition coefficient was calculated as P!"=
respectively. All measurements were performed in triplicates.

[9] = Stability in solution (ESI-MS, NMR); details: 100% d6-DMSO, 1 mM, 72 h
Experimental: The stability of 11CA under pseudo-physiological conditions was assessed using ESI-MS and ^1H and ^31P NMR spectroscopy.
Stability studies were performed on 11CA over 72 h at 37 °C.
The stability of 11Cl was also monitored over
72 h via 1H and 31P NMR spectroscopy. The complex was fully dissolved in d6-DMSO,
diluted with D2O to reach 10% d6-DMSO in D2O (1 mM final concentration) and, finally,
the pD was adjusted to 7.2 ± 0.1 (neutral conditions). Furthermore, the stability of 11Cl
and 11BPh4 was also assessed in 100% d6-DMSO (1 mM final concentration) as a highly

[10] = 24 h exposure, read-out: IC50 (µM) (average ± standard deviation) 24 h MCF-7
[11] = 72 h exposure, read-out: IC50 (μM) (average ± standard deviation) 72 h MCF-7
[12] = 24 h exposure, read-out: IC50 (µM) (average ± standard deviation) 24 h MDA-MB-231
[13] = 72 h exposure, read-out: IC50 (μM) (average ± standard deviation) 72 h MDA-MB-231
[14] = 24 h exposure, read-out: IC50 (µM) (average ± standard deviation) 24 h L929
[15] = 72 h exposure, read-out: IC50 (μM) (average ± standard deviation) 72 h L929

| Compound | binding [1] | binding [2] | LogPow [3] | IC50 (MCF-7; [10]) [µM] | IC50 (MCF-7; [11]) [µM] | IC50 (MDA-MB-231 [4]; [12]) [µM] | IC50 (MDA-MB-231 [4]; [13]) [µM] | SI (selectivity index) (L929; 24 h) | IC50 (L929; [14]) [µM] | SI (selectivity index) (L929; 72 h) | IC50 (L929; [15]) [µM] | average apoptosis percentage, MDA-MB-231 cells (MDA-MB-231 [5]) [%] | Solubility (μM) [6] | Solubility (μg/mL) [6] | Conductivity (molar conductivity) [7] [S·cm2/mol] | LogPow [8] | stability in DMSO (NMR) [9] |
| --- | --- | --- | --- | --- | --- | --- | --- | --- | --- | --- | --- | --- | --- | --- | --- | --- | --- |
| Cc1ccccc1.[Cl-].[Ru+2].c1ccc(P(c2ccccc2)c2ccccc2)cc1.c1ccc(P(c2ccccc2)c2ccccc2)cc1 | yes | yes |  |  |  |  |  |  |  |  |  |  |  |  |  |  |  |
| Cc1ccccc1.[Cl][Ru]([Cl])[PH]12CN3CN(CN(C3)C1)C2 [Compound 4] |  |  | −1.5 | 474 ± 19 | 68 ± 7 | 384 ± 16 | 83 ± 4 | 1.7 | 723 ± 29 | 1.0 | 79 ± 4 |  |  |  |  |  |  |
| Cc1ccc(C(C)C)cc1.[Cl][Ru]([Cl])[PH]12CN3CN(CN(C3)C1)C2 [Compound 5] |  |  | > −1.8 | 526 ± 19 | 57 ± 5 | 497 ± 12 | 71 ± 4 | 1.2 | 612 ± 30 | 1.3 | 84 ± 4 |  |  |  |  |  |  |
| Cc1cccc[c]1[Ru+]([Cl])([PH]12CN3CN(CN(C3)C1)C2)[PH](c1ccccc1)(c1ccccc1)c1ccccc1.F[P-](F)(F)(F)(F)F (stereo not drawn) [Compound 10] |  |  |  | 128 ± 30 | 3.1 ± 0.2 | 113 ± 14 | 2.8 ± 0.2 | 0.6 | 74 ± 5 | 10.5 | 31 ± 3 | 41 | 547 ± 117 µM | 475 ± 102 µg/mL |  |  |  |
| Cc1cccc[c]1[Ru+]([Cl])([PH](c1ccccc1)(c1ccccc1)c1ccccc1)[PH](c1ccccc1)(c1ccccc1)c1ccccc1.c1ccc([B-](c2ccccc2)(c2ccccc2)c2ccccc2)cc1 [Compound 11BPh4] |  |  |  | 51 ± 5 | 0.52 ± 0.06 | 100 ± 8 | 1.7 ± 0.3 | 0.8 | 59 ± 5 | 3.5 | 3.9 ± 0.3 | 33 | below LOD | below LOD | 71 | > 3.5 | No changes were observed |
